Assay results as given in ChEMBL document CHEMBL5727827, “PD-1/PD-L1 inhibitors” (2020).

Molecular target: Programmed cell death protein 1/Programmed cell death 1 ligand 1 (Homo sapiens, UniProt Q15116+Q9NZQ7)
Experiment: Binding of the protein pairs is measured using a bead based Amplified Luminescent Proximity Homogeneous Assay (ALPHA) platform. Binding of each protein pair results in proximity of the donor and acceptor beads which leads to an increase in ALPHA signal. […] Assays are performed in 25 mM Hepes (pH 7.4), 150 mM NaCl, 3.4 mM EDTA, 0.005% Tween 20, and 0.01% BSA. […] After an assay reaction time of 60 minutes at 25° C., binding was measured with addition of 20 μg/mL ALPHA assay acceptor beads (anti-His coated) and 20 µg/mL ALPHA assay donor beads (streptavidin coated). IC50 values were calculated from the fit of the dose-response curves to a four-parameter equation.
Assay type: protein-complex assay

Chain of Programmed cell death protein 1/Programmed cell death 1 ligand 1 (Q15116 whole entry): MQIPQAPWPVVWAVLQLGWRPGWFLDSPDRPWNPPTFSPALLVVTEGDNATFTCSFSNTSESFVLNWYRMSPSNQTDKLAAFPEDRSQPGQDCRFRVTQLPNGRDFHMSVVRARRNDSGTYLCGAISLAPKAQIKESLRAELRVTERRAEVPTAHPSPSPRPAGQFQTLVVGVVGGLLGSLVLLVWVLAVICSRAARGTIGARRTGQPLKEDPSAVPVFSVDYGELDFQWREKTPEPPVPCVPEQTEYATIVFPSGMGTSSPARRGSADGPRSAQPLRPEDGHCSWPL
Chain of Programmed cell death protein 1/Programmed cell death 1 ligand 1 (Q9NZQ7 whole entry): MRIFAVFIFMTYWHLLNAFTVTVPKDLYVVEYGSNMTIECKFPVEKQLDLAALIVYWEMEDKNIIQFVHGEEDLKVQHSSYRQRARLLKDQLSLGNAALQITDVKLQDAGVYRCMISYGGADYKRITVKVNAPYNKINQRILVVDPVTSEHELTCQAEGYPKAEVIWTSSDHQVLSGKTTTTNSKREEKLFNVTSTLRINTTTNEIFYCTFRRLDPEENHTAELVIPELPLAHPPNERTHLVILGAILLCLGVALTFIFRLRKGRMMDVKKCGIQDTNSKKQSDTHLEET

COc1nc(-c2cccc(-c3cccc(-c4cnc(CN5CC(C(C)(C)O)C5)c(OC)n4)c3Cl)c2Cl)cnc1CN
IC50: 0.346 nM
